Values quoted from earlier work as cited in US20070123548A1, “Pth agonists” (priority 2004, published 2007).

Settings: daily subcutaneous injection for up to 2 years

With `CC[C@H](C)[C@H](NC(=O)[C@H](CCC(=O)O)NC(=O)[C@H](CO)NC(=O)[C@@H](NC(=O)[C@@H](N)CO)C(C)C)C(=O)N[C@@H](CCC(N)=O)C(=O)N[C@@H](CC(C)C)C(=O)N[C@@H](CCSC)C(=O)N[C@@H](Cc1cnc[nH]1)C(=O)N[C@@H](CC(N)=O)C(=O)N[C@@H](CC(C)C)C(=O)NCC(=O)N[C@@H](CCCCN)C(=O)N[C@@H](Cc1cnc[nH]1)C(=O)N[C@@H](CC(C)C)C(=O)N[C@@H](CC(N)=O)C(=O)N[C@@H](CO)C(=O)N[C@@H](CCSC)C(=O)N[C@@H](CCC(=O)O)C(=O)N[C@@H](CCCN=C(N)N)C(=O)N[C@H](C(=O)N[C@@H](CCC(=O)O)C(=O)N[C@@H](Cc1c[nH]c2ccccc12)C(=O)N[C@@H](CC(C)C)C(=O)N[C@@H](CCCN=C(N)N)C(=O)N[C@@H](CCCCN)C(=O)N[C@@H](CCCCN)C(=O)N[C@@H](CC(C)C)C(=O)N[C@@H](CCC(N)=O)C(=O)N[C@@H](CC(=O)O)C(=O)N[C@H](C(=O)N[C@@H](Cc1cnc[nH]1)C(=O)N[C@@H](CC(N)=O)C(=O)N[C@@H](Cc1ccccc1)C(=O)O)C(C)C)C(C)C` [PTH(1-34)] as the molecule, how does the “Reduction of fracture incidence at non-vertebral sites” value read?
The value was 40%.

And the “Reduction of fracture incidence at the spine” value?
The value was 65%.
